Biological target: T1, SIRT1 (Homo sapiens, UniProt Q96EB6)
T1 sequence (Q96EB6 1-747): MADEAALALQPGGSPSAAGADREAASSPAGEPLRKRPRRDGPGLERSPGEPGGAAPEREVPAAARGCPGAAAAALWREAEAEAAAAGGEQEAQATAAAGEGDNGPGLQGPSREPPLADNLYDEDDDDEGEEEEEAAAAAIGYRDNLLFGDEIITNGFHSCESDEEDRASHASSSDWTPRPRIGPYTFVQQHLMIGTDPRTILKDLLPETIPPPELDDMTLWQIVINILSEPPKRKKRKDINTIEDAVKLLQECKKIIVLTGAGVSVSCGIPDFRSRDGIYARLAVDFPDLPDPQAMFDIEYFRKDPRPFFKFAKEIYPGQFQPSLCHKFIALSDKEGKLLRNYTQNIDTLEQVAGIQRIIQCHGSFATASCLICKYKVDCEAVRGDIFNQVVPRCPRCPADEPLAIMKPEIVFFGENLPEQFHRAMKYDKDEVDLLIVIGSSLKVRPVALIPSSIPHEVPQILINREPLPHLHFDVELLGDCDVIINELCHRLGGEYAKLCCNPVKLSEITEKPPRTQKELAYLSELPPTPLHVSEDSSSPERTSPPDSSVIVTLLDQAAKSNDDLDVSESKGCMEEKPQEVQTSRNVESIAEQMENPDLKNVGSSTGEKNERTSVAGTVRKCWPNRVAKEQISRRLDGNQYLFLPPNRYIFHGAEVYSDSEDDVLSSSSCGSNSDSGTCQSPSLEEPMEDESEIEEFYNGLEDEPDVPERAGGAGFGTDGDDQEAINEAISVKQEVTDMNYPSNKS
Experiment: Mass spectrometry based assay to identify modulators of SIRT1 activity (deacetylation of p53-based acetylated peptide)
Type: biochemical
Details: 10 nM SIRT1, 0.5 μM peptide substrate, 120 μM βNAD+, 25 minutes at 25° C.; for EC1.5 μM: SIRT1 activation

Cn1c(-c2cccc(OC(F)(F)F)c2)nc2c(NC(=O)c3cnccn3)cccc2c1=O [Compound 204]
% Fold Act. (percent maximum fold activation): A (Fold activation>200%)
EC1.5 μM: A (EC1.5<1.0 μM)

O=C(Nc1ccccn1)c1cccc2c(=O)[nH]c(-c3ccccc3OC(F)(F)F)nc12 [Compound 320]
% Fold Act. (percent maximum fold activation): A (Fold activation>200%)
EC1.5 μM: A (EC1.5<1.0 μM)

Cn1c(-c2ccccc2C(F)F)nc2c(NC(=O)c3cnccn3)cccc2c1=O [Compound 314]
% Fold Act. (percent maximum fold activation): A (Fold activation>200%)
EC1.5 μM: A (EC1.5<1.0 μM)

Cn1c(-c2ccc(CN3CCCC3)cc2)nc2c(C(=O)Nc3ccccn3)cccc2c1=O [Compound 275, 3-methyl-4-oxo-N-(pyridin-2-yl)-2-(4-(pyrrolidin-1-ylmethyl)phenyl)-3,4-dihydroquinazoline-8-carboxamide]
% Fold Act. (percent maximum fold activation): B (Fold Activation<200%)
EC1.5 μM: C (EC1.5>25 μM)

Cn1c(-c2cccc(C(F)(F)F)c2)nc2c(C(=O)Nc3cccc(CN4CCCC4)n3)cccc2c1=O [Compound 351]
% Fold Act. (percent maximum fold activation): A (Fold activation>200%)
EC1.5 μM: A (EC1.5<1.0 μM)

Cn1c(-c2ccccc2N2CCOCC2)nc2c(C(=O)Nc3ccccn3)cccc2c1=O [Compound 216]
% Fold Act. (percent maximum fold activation): B (Fold Activation<200%)
EC1.5 μM: C (EC1.5>25 μM)

O=C(Nc1nccs1)c1cncc2c(=O)cc(-c3cccc(C(F)(F)F)c3)[nH]c12 [Compound 449, 4-oxo-N-(thiazol-2-yl)-2-(3-(trifluoromethyl)phenyl)-1,4-dihydro-1,6-naphthyridine-8-carboxamide]
% Fold Act. (percent maximum fold activation): A (Fold activation>200%)
EC1.5 μM: A (EC1.5<1.0 μM)

Cn1c(-c2cccc(C(F)(F)F)c2)nc2c(C(=O)Nc3cncc(OCC(O)CO)n3)cccc2c1=O (centres unmarked) [Compound 354]
% Fold Act. (percent maximum fold activation): A (Fold activation>200%)
EC1.5 μM: A (EC1.5<1.0 μM)

O=C(Nc1cccc2c(=O)cc(-c3cccc(C(F)(F)F)c3)[nH]c12)c1cnccn1 [Compound 409, N-(4-oxo-2-(3-(trifluoromethyl)phenyl)-1,4-dihydroquinolin-8-yl)pyrazine-2-carboxamide]
% Fold Act. (percent maximum fold activation): A (Fold activation>200%)
EC1.5 μM: A (EC1.5<1.0 μM)

Cn1c(-c2cccc(N3CCOCC3)c2)nc2c(C(=O)Nc3ccccn3)cccc2c1=O [Compound 209]
% Fold Act. (percent maximum fold activation): A (Fold activation>200%)
EC1.5 μM: B (EC1.5 1-25 μM)

Cc1cc(C)nc(NC(=O)c2cccc3c(=O)n(C)c(-c4cccc(C(F)(F)F)c4)nc23)c1 [Compound 306]
% Fold Act. (percent maximum fold activation): A (Fold activation>200%)
EC1.5 μM: A (EC1.5<1.0 μM)

O=C(Nc1cccc2c(=O)cc(-c3cccc(C(F)(F)F)c3)[nH]c12)c1ncccn1 [Compound 417]
% Fold Act. (percent maximum fold activation): A (Fold activation>200%)
EC1.5 μM: A (EC1.5<1.0 μM)

Cn1c(-c2cccc(OC(F)(F)F)c2)nc2c(C(=O)Nc3ccccn3)cccc2c1=O [Compound 207]
% Fold Act. (percent maximum fold activation): A (Fold activation>200%)
EC1.5 μM: A (EC1.5<1.0 μM)

Cn1c(-c2cccc(C(F)(F)F)c2)nc2c(C(=O)Nc3ccncc3)cccc2c1=O [Compound 266]
% Fold Act. (percent maximum fold activation): A (Fold activation>200%)
EC1.5 μM: B (EC1.5 1-25 μM)

Cn1c(-c2cncnc2)nc2c(C(=O)Nc3ccccn3)cccc2c1=O [Compound 260]
% Fold Act. (percent maximum fold activation): B (Fold Activation<200%)
EC1.5 μM: C (EC1.5>25 μM)

O=C(Nc1cccc2c(=O)[nH]c(-c3ccccc3C(F)(F)F)nc12)c1cnccn1 [Compound 317]
% Fold Act. (percent maximum fold activation): A (Fold activation>200%)
EC1.5 μM: A (EC1.5<1.0 μM)

COc1cc(OC)nc(C(=O)Nc2cccc3c(=O)cc(-c4cccc(C(F)(F)F)c4)[nH]c23)n1 [Compound 423]
% Fold Act. (percent maximum fold activation): A (Fold activation>200%)
EC1.5 μM: A (EC1.5<1.0 μM)

Cn1cncc1-c1nc2c(NC(=O)c3cnccn3)cccc2c(=O)n1C [Compound 285]
% Fold Act. (percent maximum fold activation): B (Fold Activation<200%)
EC1.5 μM: B (EC1.5 1-25 μM)

Cn1ccc(-c2nc3c(NC(=O)c4cnccn4)cccc3c(=O)n2C)n1 [Compound 290]
% Fold Act. (percent maximum fold activation): B (Fold Activation<200%)
EC1.5 μM: C (EC1.5>25 μM)

Cn1c(-c2cccc(C(F)(F)F)c2)nc2c(C(=O)Nc3ccnc(N4CCOCC4)c3)cccc2c1=O [Compound 304]
% Fold Act. (percent maximum fold activation): A (Fold activation>200%)
EC1.5 μM: A (EC1.5<1.0 μM)

Cn1c(-c2cccc(C(F)(F)F)c2)nc2c(C(=O)Nc3cccc(OC[C@H](O)CO)n3)cccc2c1=O [Compound 353]
% Fold Act. (percent maximum fold activation): A (Fold activation>200%)
EC1.5 μM: A (EC1.5<1.0 μM)

Cn1c(-c2cccc(C(F)(F)F)c2)nc2c(C(=O)Nc3ccccn3)cccc2c1=O [Compound 206]
% Fold Act. (percent maximum fold activation): A (Fold activation>200%)
EC1.5 μM: A (EC1.5<1.0 μM)

Cn1c(-c2cccc(C(F)(F)F)c2)nc2c(C(=O)Nc3ccncn3)cccc2c1=O [Compound 303]
% Fold Act. (percent maximum fold activation): A (Fold activation>200%)
EC1.5 μM: B (EC1.5 1-25 μM)

CC(C)Cn1c(-c2cccc(C(F)(F)F)c2)nc2c(NC(=O)c3cnccn3)cccc2c1=O [Compound 234]
% Fold Act. (percent maximum fold activation): A (Fold activation>200%)
EC1.5 μM: A (EC1.5<1.0 μM)

Cn1c(-c2cccc(C(F)(F)F)c2)nc2c(C(=O)Nc3ccnc(OCC(O)CO)n3)cccc2c1=O (centres unmarked) [Compound 355]
% Fold Act. (percent maximum fold activation): A (Fold activation>200%)
EC1.5 μM: A (EC1.5<1.0 μM)

Cn1c(-c2cccc(C(F)(F)F)c2)nc2c(C(=O)Nc3ncc(CN4CCCC4)s3)cccc2c1=O [Compound 358]
% Fold Act. (percent maximum fold activation): A (Fold activation>200%)
EC1.5 μM: B (EC1.5 1-25 μM)

Cn1c(-c2cscn2)nc2c(C(=O)Nc3ccccn3)cccc2c1=O [Compound 225]
% Fold Act. (percent maximum fold activation): B (Fold Activation<200%)
EC1.5 μM: C (EC1.5>25 μM)

Cn1c(C2CCC2)nc2c(C(=O)Nc3ccccn3)cccc2c1=O [Compound 224]
% Fold Act. (percent maximum fold activation): B (Fold Activation<200%)
EC1.5 μM: C (EC1.5>25 μM)

O=C(NC1CN2CCC1CC2)c1cccc2c(=O)cc(-c3cccc(C(F)(F)F)c3)[nH]c12 (centres unmarked) [Compound 414]
% Fold Act. (percent maximum fold activation): A (Fold activation>200%)
EC1.5 μM: B (EC1.5 1-25 μM)

Cn1c(-c2cccc(C(F)(F)F)c2)nc2c(C(=O)Nc3cccc(OC[C@H](O)CO)c3)cccc2c1=O [Compound 363]
% Fold Act. (percent maximum fold activation): A (Fold activation>200%)
EC1.5 μM: A (EC1.5<1.0 μM)

O=C(Nc1cccc2c(=O)cc(-c3cccc(C(F)(F)F)c3)[nH]c12)c1cccc(CN2CCOCC2)n1 [Compound 448]
% Fold Act. (percent maximum fold activation): A (Fold activation>200%)
EC1.5 μM: A (EC1.5<1.0 μM)

CC(C)Cn1c(-c2cccc(C(F)(F)F)c2)nc2c(C(=O)Nc3ccccn3)cccc2c1=O [Compound 271]
% Fold Act. (percent maximum fold activation): B (Fold Activation<200%)
EC1.5 μM: B (EC1.5 1-25 μM)

Cn1c(-c2cccc(C(F)(F)F)c2)nc2c(NC(=O)c3cccc(CN4CCOCC4)c3)cccc2c1=O [Compound 338]
% Fold Act. (percent maximum fold activation): A (Fold activation>200%)
EC1.5 μM: A (EC1.5<1.0 μM)

COc1ccc(NC(=O)c2cccc3c(=O)n(C)c(-c4cccc(C(F)(F)F)c4)nc23)cc1OC [Compound 220, N-(3,4-dimethoxyphenyl)-3-methyl-4-oxo-2-(3-(trifluoromethyl)phenyl)-3,4-dihydroquinazoline-8-carboxamide]
% Fold Act. (percent maximum fold activation): A (Fold activation>200%)
EC1.5 μM: A (EC1.5<1.0 μM)

O=C(Nc1cccc2c(=O)[nH]c(-c3ccccc3C(F)F)nc12)c1cnccn1 [Compound 329]
% Fold Act. (percent maximum fold activation): A (Fold activation>200%)
EC1.5 μM: A (EC1.5<1.0 μM)

O=C(Nc1cccc2c(=O)n(CCN3CCCC3)c(-c3cccc(C(F)(F)F)c3)nc12)c1cnccn1 [Compound 235]
% Fold Act. (percent maximum fold activation): A (Fold activation>200%)
EC1.5 μM: B (EC1.5 1-25 μM)

O=C(Nc1ccccn1)c1cccc2c(=O)[nH]c(-c3cccc(OC(F)F)c3)nc12 [Compound 325]
% Fold Act. (percent maximum fold activation): B (Fold Activation<200%)
EC1.5 μM: C (EC1.5>25 μM)

Cn1cnc(-c2nc3c(C(=O)Nc4ccccn4)cccc3c(=O)n2C)c1 [Compound 261]
% Fold Act. (percent maximum fold activation): B (Fold Activation<200%)
EC1.5 μM: C (EC1.5>25 μM)

Cn1c(-c2cccc(C(F)(F)F)c2)nc2c(C(=O)Nc3ncc(CN4CCOCC4)s3)cccc2c1=O [Compound 308]
% Fold Act. (percent maximum fold activation): A (Fold activation>200%)
EC1.5 μM: B (EC1.5 1-25 μM)

O=C(Nc1cccc2c(=O)[nH]c(-c3ccccc3OC(F)(F)F)nc12)c1cnccn1 [Compound 318]
% Fold Act. (percent maximum fold activation): A (Fold activation>200%)
EC1.5 μM: A (EC1.5<1.0 μM)

Source: patent publication US9326986B2, “Quinazolinone, quinolone and related analogs as sirtuin modulators” (GLAXOSMITHKLINE LLC, priority 2008, dated 2016)
